Experimental data from BindingDB's records for patent US20240033370 (Bolt Biotherapeutics, 2024).

Biological target: T1, Toll-like receptor 7 (Homo sapiens, UniProt Q9NYK1)
T1 sequence (Q9NYK1 whole entry): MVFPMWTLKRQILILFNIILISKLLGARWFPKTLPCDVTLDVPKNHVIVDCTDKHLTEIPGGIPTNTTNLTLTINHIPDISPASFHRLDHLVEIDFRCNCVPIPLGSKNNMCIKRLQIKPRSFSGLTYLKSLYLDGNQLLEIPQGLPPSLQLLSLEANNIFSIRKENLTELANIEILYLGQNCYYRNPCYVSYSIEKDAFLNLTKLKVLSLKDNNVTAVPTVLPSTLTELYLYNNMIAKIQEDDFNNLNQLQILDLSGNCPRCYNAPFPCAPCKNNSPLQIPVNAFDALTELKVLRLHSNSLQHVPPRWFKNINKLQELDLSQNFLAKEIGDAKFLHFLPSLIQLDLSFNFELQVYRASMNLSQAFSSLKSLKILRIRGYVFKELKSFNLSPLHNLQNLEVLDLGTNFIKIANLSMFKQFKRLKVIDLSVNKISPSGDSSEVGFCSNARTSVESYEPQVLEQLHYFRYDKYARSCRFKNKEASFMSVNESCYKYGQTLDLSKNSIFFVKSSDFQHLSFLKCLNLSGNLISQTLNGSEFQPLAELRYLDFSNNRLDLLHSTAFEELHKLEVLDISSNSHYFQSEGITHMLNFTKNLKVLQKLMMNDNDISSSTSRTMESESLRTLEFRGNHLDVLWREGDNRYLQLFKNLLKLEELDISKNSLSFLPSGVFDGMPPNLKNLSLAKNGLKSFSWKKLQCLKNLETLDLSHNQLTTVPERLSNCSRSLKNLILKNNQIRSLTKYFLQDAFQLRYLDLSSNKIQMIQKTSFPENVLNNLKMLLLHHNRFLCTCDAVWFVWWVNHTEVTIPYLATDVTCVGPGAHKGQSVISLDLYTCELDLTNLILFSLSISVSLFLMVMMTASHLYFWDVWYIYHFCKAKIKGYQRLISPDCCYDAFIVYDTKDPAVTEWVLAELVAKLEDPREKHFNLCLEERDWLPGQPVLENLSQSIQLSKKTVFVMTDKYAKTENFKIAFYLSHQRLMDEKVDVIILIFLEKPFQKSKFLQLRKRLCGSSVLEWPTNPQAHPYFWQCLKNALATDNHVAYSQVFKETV
Test: HEK Reporter Assay
Procedure: HEK293 reporter cells expressing human TLR7 or human TLR8 were purchased from Invivogen and vendor protocols were followed for cellular propagation and experimentation. Briefly, cells were grown to 80-85% confluence at 5% CO2 in DMEM supplemented with 10% FBS, Zeocin, and Blasticidin. Cells were then seeded in 96-well flat plates at 4×10^4 cells/well with substrate containing HEK detection medium and immunostimulatory molecules. Activity was measured using a plate reader at 620-655 nm wavelength.

- EC50: 35 nM
SMILES: CCCNC(=O)C1=Cc2ccc(-c3cnc(CN)nc3)cc2N=C(N)C1 [US20240033370, Hx No. CycBz-5]
